Assay results published in US8889875B2, “Pyridyl derivatives as CFTR modulators” (Vertex Pharmaceuticals Incorporated, priority 2008, dated 2014).

Molecular target: T1, ΔF508-CFTR (Homo sapiens, UniProt P13569, DEL508-508)
T1 construct: expressed in transfected cells
Experiment: Membrane potential optical assay, identification of correction compounds (single-addition HTS format)
Type: cell-based
Settings: PercentActivity; ΔF508-CFTR in NIH3T3 mouse fibroblasts; 16-24 hrs with compound; 10 μM forskolin and 20 μM genistein; read-out: BinnedMaxEfficacy
Text: Membrane Potential Optical Methods for Assaying ΔF508-CFTR Modulation Properties of Compounds.
The assay utilizes fluorescent voltage sensing dyes to measure changes in membrane potential using a fluorescent plate reader (e.g., FLIPR III, Molecular Devices, Inc.) as a readout for increase in functional ΔF508-CFTR in NIH 3T3 cells. The driving force for the response is the creation of a chloride ion gradient in conjunction with channel activation by a single liquid addition step after the cells have previously been treated with compounds and subsequently loaded with a voltage sensing dye.
To identify small molecules that correct the trafficking defect associated with ΔF508-CFTR; a single-addition HTS assay format was developed. Assay Plates containing cells are incubated for ˜2-4 hours in tissue culture incubator at 37° C., 5% CO2, 90% humidity. Cells are then ready for compound exposure after adhering to the bottom of the assay plates.
The cells were incubated in serum-free medium for 16-24 hrs in tissue culture incubator at 37° C., 5% CO2, 90% humidity in the presence or absence (negative control) of test compound. The cells were subsequently rinsed 3× with Krebs Ringers solution and loaded with a voltage sensing redistribution dye. To activate ΔF508-CFTR, 10 μM forskolin and the CFTR potentiator, genistein (20 μM), were added along with Cl^−-free medium to each well. The addition of Cl^−-free medium promoted Cl^− efflux in response to ΔF508-CFTR activation and the resulting membrane depolarization was optically monitored using voltage sensor dyes.
Bath Solution #1: (in mM) NaCl 160, KCl 4.5, CaCl2 2, MgCl2 1, HEPES 10, pH 7.4 with NaOH.
Chloride-free bath solution: Chloride salts in Bath Solution #1 are substituted with gluconate salts.
NIH3T3 mouse fibroblasts stably expressing ΔF508-CFTR are used for optical measurements of membrane potential. The cells are maintained at 37° C. in 5% CO2 and 90% humidity in Dulbecco's modified Eagle's medium supplemented with 2 mM glutamine, 10% fetal bovine serum, 1×NEAA, β-ME, 1×pen/strep, and 25 mM HEPES in 175 cm^2 culture flasks. For all optical assays, the cells were seeded at ˜20,000/well in 384-well matrigel-coated plates and cultured for 2 hrs at 37° C. before culturing at 27° C. for 24 hrs. for the potentiator assay. For the correction assays, the cells are cultured at 27° C. or 37° C. with and without compounds for 16-24 hours.

T1 sequence (P13569 with tags, fused parts or gaps DEL508-508): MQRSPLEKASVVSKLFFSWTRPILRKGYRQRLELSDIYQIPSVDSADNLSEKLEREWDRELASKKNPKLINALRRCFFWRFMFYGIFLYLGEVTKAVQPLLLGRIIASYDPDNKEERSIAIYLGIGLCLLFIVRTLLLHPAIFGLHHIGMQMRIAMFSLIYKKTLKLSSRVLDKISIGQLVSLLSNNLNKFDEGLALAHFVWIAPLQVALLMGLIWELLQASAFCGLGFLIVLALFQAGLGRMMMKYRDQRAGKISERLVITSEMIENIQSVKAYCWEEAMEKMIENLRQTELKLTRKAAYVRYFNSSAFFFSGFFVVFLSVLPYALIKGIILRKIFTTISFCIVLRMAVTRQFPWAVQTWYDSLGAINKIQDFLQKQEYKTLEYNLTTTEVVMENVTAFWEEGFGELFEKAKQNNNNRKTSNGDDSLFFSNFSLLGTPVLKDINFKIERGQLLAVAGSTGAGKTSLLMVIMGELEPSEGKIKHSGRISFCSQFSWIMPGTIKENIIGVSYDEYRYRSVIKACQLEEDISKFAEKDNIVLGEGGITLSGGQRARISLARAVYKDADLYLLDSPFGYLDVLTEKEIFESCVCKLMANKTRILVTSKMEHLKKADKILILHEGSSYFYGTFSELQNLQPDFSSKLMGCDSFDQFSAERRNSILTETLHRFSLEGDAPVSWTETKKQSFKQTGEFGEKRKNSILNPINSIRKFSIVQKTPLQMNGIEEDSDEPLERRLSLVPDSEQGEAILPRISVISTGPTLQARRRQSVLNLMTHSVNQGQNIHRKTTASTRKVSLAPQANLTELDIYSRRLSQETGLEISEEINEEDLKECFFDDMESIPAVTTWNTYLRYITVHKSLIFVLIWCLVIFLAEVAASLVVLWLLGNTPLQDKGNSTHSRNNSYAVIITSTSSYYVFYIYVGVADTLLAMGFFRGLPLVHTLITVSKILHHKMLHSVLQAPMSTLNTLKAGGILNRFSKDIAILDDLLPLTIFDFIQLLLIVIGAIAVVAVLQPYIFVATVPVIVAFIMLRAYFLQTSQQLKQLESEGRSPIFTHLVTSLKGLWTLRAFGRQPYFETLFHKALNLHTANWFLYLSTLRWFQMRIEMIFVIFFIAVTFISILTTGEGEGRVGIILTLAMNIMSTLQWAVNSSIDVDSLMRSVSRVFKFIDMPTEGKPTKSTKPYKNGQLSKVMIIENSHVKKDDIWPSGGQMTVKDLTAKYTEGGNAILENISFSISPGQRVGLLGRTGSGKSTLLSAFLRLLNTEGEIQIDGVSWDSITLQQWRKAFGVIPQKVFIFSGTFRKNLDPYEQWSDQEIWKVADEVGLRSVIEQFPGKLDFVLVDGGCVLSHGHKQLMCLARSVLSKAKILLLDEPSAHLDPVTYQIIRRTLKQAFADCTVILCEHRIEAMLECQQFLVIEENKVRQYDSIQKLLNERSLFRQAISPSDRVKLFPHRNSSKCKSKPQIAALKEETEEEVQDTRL

Structure (SMILES)	Emax [%]
Cc1cccc(NC(=O)C2(c3ccc4c(c3)OCO4)CC2)n1 [Compound 72]	> 100
Cc1ccc(NC(=O)C2(c3ccc4c(c3)OC(F)(F)O4)CC2)nc1NCc1ccccc1 [Compound 73]	> 100
COc1ccccc1N(C)c1cccc(NC(=O)C2(c3ccc4c(c3)OCO4)CC2)n1 [Compound 74]	> 100
CCc1ccnc(NC(=O)C2(c3ccc(OC)cc3)CC2)c1 [Compound 75]	25 to 100
O=C(Nc1cccc(Cc2ccccc2Cl)n1)C1(c2ccc3c(c2)OCO3)CC1 [Compound 78]	> 100

Next, values leading:

Emax [%]	Structure (SMILES)
> 100	COc1ccccc1C(=O)c1ccc(NC(=O)C2(c3ccc(Cl)cc3)CC2)nc1 [Compound 76]
25 to 100	COc1ccccc1C(=O)c1ccc(NC(=O)C2(c3ccccc3)CC2)nc1 [Compound 77]
